From BindingDB's records for PubMed 36270088 (n/a, 2022)

Test: Antagonist activity against CXCR4 in human SUP-T1 cells assessed as inhibition of SDF-1alpha-induced cell migration preincubated with cells for 30 mins followed by incubation with SDF-1alpha for 3 hrs by CellTiter-96 reagent based transwell assay

| Compound | IC50 [µM] |
| --- | --- |
| CC(C)C[C@@H](N)C(=O)NCC(=O)N[C@H](C)C(=O)N[C@H](CO)C(=O)N[C@H](Cc1c[nH]c2ccccc12)C(=O)N[C@H](Cc1cnc[nH]1)C(=O)N[C@H](CCCNC(=N)N)C(=O)N1CCC[C@@H]1C(=O)N[C@H](CC(=O)O)C(=O)N[C@H](CCCCN)C(=O)N[C@H](CCCCN)C(=O)N[C@H](CCCNC(=N)N)C(=O)N(CCCCCC(=O)O)[C@@H](CCCCN)C(=O)N[C@@H](CCCNC(=N)N)C(=O)N[C@@H](CCCCN)C(=O)N[C@@H](CCC(N)=O)C(=O)N[C@@H](CCCNC(=N)N)C(=O)NCC(=O)N1CCC[C@H]1C(=O)NCC(=O)N[C@@H](CCCNC(=N)N)C(=O)N[C@@H](C)C(=O)N[C@@H](Cc1ccccc1)C(N)=O | 6.08 |
| CC(C)C[C@@H](N)C(=O)NCC(=O)N[C@H](C)C(=O)N[C@H](CO)C(=O)N[C@H](Cc1c[nH]c2ccccc12)C(=O)N[C@H](Cc1cnc[nH]1)C(=O)N[C@H](CCCNC(=N)N)C(=O)N1CCC[C@@H]1C(=O)N[C@H](CC(=O)O)C(=O)N[C@H](CCCCN)C(=O)N[C@H](CCCCN)C(=O)N[C@H](CCCNC(=N)N)C(=O)N(CCCCCC(=O)O)[C@H](CCCCN)C(=O)N[C@H](CCCNC(=N)N)C(=O)N[C@H](CCCCN)C(=O)N[C@H](CCC(N)=O)C(=O)N[C@H](CCCNC(=N)N)C(=O)NCC(=O)N1CCC[C@@H]1C(=O)NCC(=O)N[C@H](CCCNC(=N)N)C(=O)N[C@H](C)C(=O)N[C@H](Cc1ccccc1)C(N)=O | 0.87 |
